Test results reported in US20260108505A1, “EYE DROP COMPOSITION COMPRISING NOVEL MOLECULAR ASSOCIATION OF AXITINIB AND METHOD FOR PREPARING THE SAME” (SCAI THERAPEUTICS CO., LTD., priority 2024, published 2026).
Marks after values point to notes of the source that are not given here.

Tests used:
[1] = Solubility of SCAI-Form and API at pH 1 and pH 2; format: physicochemical; conditions: for Dissolution concentration at pH 1: stirred 15 minutes at 5 mg/mL, diluted 10 times with DW, measured value x 10; for Dissolution concentration at pH 1 / Dissolution concentration at pH 2: filtered; for Dissolution concentration at pH 2: stirred 15 minutes at 1 mg/mL
Description: Method for measuring solubility at pH 1: Stirred for 15 minutes at a concentration of 5 mg/mL, and then filtered, diluted 10 times with DW, and analyzed. (The value calculated as [measured value×10] is described in the results)
Method for measuring solubility at pH 2: Stirred for 15 minutes at a concentration of 1 mg/mL, and then filtered, and analyzed.

[2] = system: grade 3/4 CNV lesions; assay: Laser-induced CNV monkey model, optical coherence tomography (OCT): retinal thickness; format: in vivo, rhesus monkeys; conditions: n = 6 eyes; for Percent change of retinal thickness (Mean±SD): relative to (baseline − before laser induction), Example 15 (0.08%) eye drops
Source text: (§1) In this experiment, neovascularization was induced by damaging the choroid of both eyes using a laser in a monkey animal model, and then treated with drugs, and the efficacy is compared and evaluated by performing fundus fluorescein angiography (FFA) and optical coherence tomography (OCT) and measuring the neovascular area and spot number in the damaged area and the retinal lesion thickness.
(§2) Experimental CNV in monkey eyes was induced using a laser photocoagulation system (Vitra 532 nm, Quantel Medical, France).
(§3) Laser parameters: laser wavelength of 532 nm; spot size of 50 μm; energy of 600-800 mW; exposure time of 0.1 s.
(§4) A total of eight rhesus monkeys were used to induce CNV. The animals were anesthetized by intramuscular injection of ketamine hydrochloride (20 mg/kg) and dexmedetomidine hydrochloride (0.03 mg/kg), and then both eyes of each monkey were burned at 8-9 points around the macula, approximately one disc diameter from the macula. Care was taken not to aim the laser at the macula. The force used depended on the morphology of the subretinal bleb indicating a perforation of the Bruch's membrane. If no bled formed, higher energy was used at the next point. Color fundus photography (Retinal Camera TRC-50DX, Topcon Healthcare, Japan) was performed immediately after laser photocoagulation to observe the laser dots. Fundus fluorescein angiography (FFA) examination was performed 12 days after laser induction. Modeling was assessed as successful if there was one or more fluorescence leakage point of grade III and/or grade IV. Animals were enrolled in treatment and randomly divided into two groups based on the total leakage area of grade III and IV laser spots (Tables 10 and 11). The monkeys that were not included were returned to the PRIMED Animal Care Department.
Optical coherence tomography (OCT): Heidelberg Spectralis OCT plus.
(§5) Frequency: a total of 4 times, 1 time before laser photocoagulation, 1 time before administration (−Day 2), 1 time on Day 14 and 1 time on Day 28 after the first administration.
OCT image acquisition protocol: FP and FFA images were taken, and then OCT scans were performed. Efforts were made to maintain uniformly illuminated and well-focused fundus images and high-quality OCT. Once the focus was aligned on the central macula by observation of the monitor screen, the monkey's eyes were identified by applying a high-speed macular scan process. Retinal thickness was automatically measured using software embedded in the Heidelberg OCT by measuring the distance between the internal border membrane and Bruch's membrane. Two membrane lines were found manually. The location with the maximum thickness around the grade III or IV point was selected for measurements. Heidelberg OCT unique has technical characteristics that ensure longitudinal measurements of retinal thickness at the same location.
(§6) Data analysis consisted of total area of fluorescein leakage points at one of the registered photocoagulation points, volume of fluorescein leakage points, and retinal thickness. Animal observations, photography, fundus and slit-lamp examinations were recorded and summarized in a report. The mean and standard deviation of the percent change in the total area of fluorescein leakage spots and the percent change in retinal thickness were calculated. Microsoft Office Excel 2013 and SPSS Statistics 13.0 were used for data processing and statistical analysis.

[3] = system: grade 3/4 CNV lesions; assay: Laser-induced CNV monkey model, fundus fluorescein angiography (FFA): leakage area and spot number; format: in vivo, rhesus monkeys; conditions: n = 6 eyes
Source text: as §1, §2, §3, §4, §5
FFA image acquisition protocol: The FP images were taken, and then FFA was performed. After intravenous infusion of 10% sodium fluorescein (Alcon Laboratories, USA) at a dose of 0.075 mL/kg, rapid posterior polar photographs of the right eye were taken. The left eye was then used to monitor leakage of fluorescein related to the CNV lesion at serial time points (1, 5, and 10 minutes).
To quantify the area of CNV leakage, the total area of hyperfluorescence per eye was measured in late FFA images using Image J software (version 1.52a, Wayne Rasband National Institutes of Health, USA). Images from the later stage (10 min) were also used to calculate the amount and grade of CNV spots (Table 12).
as §6

[4] = Baseline (after induction, before treatment), group later given Example 15 eye drops
[5] = Day 14, Example 15 (0.08%) eye drops 4 times/day

Row | Structure (SMILES) | Dissolution concentration at pH 1 [1] | Dissolution concentration at pH 2 [1] | Average retinal thickness of grade 3/4 CNV lesions (Mean±SD) [2, 4] | Average retinal thickness of grade 3/4 CNV lesions (Mean±SD) [2, 5] | Percent change of retinal thickness (Mean±SD) ([2]; Day 14) | Average retinal thickness of grade 3/4 CNV lesions (Mean±SD) ([2]; Day 28, Example 15 (0.08%) eye drops 4 times/day, p < 0.01 vs baseline) | Percent change of retinal thickness (Mean±SD) ([2]; Day 28, p < 0.01 vs vehicle) | Leakage area of grade 3/4 CNV lesions (Mean±SD) [3, 4] | Amount of grade 3/4 leakage spots [3, 5] | Leakage area of grade 3/4 CNV lesions (Mean±SD) ([3]; Day 14, Example 15 (0.08%) ophthalmic solution, 1 drop 50 μL, 4 times/day topical) | Percent change of leakage area (Mean±SD) ([3]; Day 14 vs baseline, Example 15 (0.08%) eye drops 4 times/day) | Amount of grade 3/4 leakage spots ([3]; Day 28, Example 15 (0.08%) eye drops 4 times/day) | Leakage area of grade 3/4 CNV lesions (Mean±SD) ([3]; Day 28, Example 15 (0.08%) ophthalmic solution, 1 drop 50 μL, 4 times/day topical, p < 0.05 vs baseline) | Percent change of leakage area (Mean±SD) ([3]; Day 28 vs baseline, Example 15 (0.08%) eye drops 4 times/day, p < 0.05 vs vehicle) | Amount of grade 3/4 leakage spots ([3]; baseline, group later given Example 15 eye drops) | Solubility of SCAI-Form relative to API ([1]; from Table 6, pH 1 and pH 2) | Dissolution concentration at pH 1 ([1]; listed as SCAI-Form) | Dissolution concentration at pH 2 ([1]; listed as SCAI-Form)
1 | CNC(=O)c1ccccc1Sc1ccc2c(/C=C/c3ccccn3)n[nH]c2c1 [API, axitinib] | 2.661 mg/mL | 0.073 mg/mL |  |  |  |  |  |  |  |  |  |  |  |  |  |  |  | 
2 | CNC(=O)c1ccccc1Sc1ccc2c(/C=C/c3ccccn3)n[nH]c2c1 [SCAI-005, axitinib] |  |  | 430 ± 45 μm | 406 ± 68 μm | −26.0 ± 26.3% | 358 ± 40 μm | −61.4 ± 16.0 % | 9.01 ± 2.25 mm^2 | 47* | 9.65 ± 4.85 mm^2 | 4.5 ± 39.1% | 43* | 6.46 ± 3.30* mm^2 | −30.2 ± 28.9 % | 53 | about twice | 4.363 mg/mL | 0.171 mg/mL
